Data reported in patent US20240058291A1, “COMPOSITION FOR CONTROLLING SUGAR, CONTAINING ATYPICAL PKC ACTIVATOR” (INDUSTRY-ACADEMIC COOPERATION FOUNDATION, YONSEI UNIVERSITY, priority 2021, published 2024).

What was measured:
[1] = tested on: IEC-6 cell line; assay: 2DG uptake after PKC siRNA transfection; assay type: cell-based; details: prostratin 1 μM or ingenol 100 nM
Method: In order to identify which PKC subtypes induce increased glucose uptake (2DG uptake) in IEC cells by treatment with each of prostratin and ingenol, the IEC-6 cell line was transfected with siRNA for each of conventional PKC (PKCα), novel PKC ([…]), and atypical PKCs (PKCζ and […]) as described in Example 7. After 48 hours, the cells were treated with prostratin (1 μM) or ingenol (100 nM), and 2DG uptake therein was analyzed.

[2] = tested on: IEC-18 cells; assay: Glucose uptake with and without PKC zeta inhibitor ZIP, IEC-18 cells; assay type: cell-based; details: 100 nM
[3] = tested on: IEC-6 cells; assay: Western blot of GLUT transporters after treatment, IEC-6 cells; assay type: cell-based; details: for GLUT1 phosphorylation: 30, 100 and 300 nM, 30 minutes, Western blot; for expression of p-GLUT1 and GLUT1: compared to Na/K ATPase
Method: (§1) For culture of IEC-6 cells (ATCC CRL-1592) and IEC-18 cells (ATCC CRL-1589), which are intestinal epithelial cells, the cells were cultured using Dulbecco's modified Eagle medium (DMEM) supplemented with 10% fetal bovine serum (FBS) and penicillin-streptomycin at 37° C. in a humidified atmosphere containing 10% CO2 and 90% air, and were subcultured every 3 to 4 days. […] When the cell density reached 1.5×10^5 cells/cm^2 after 6 days, the cultures were collected and used. Prostratin was purchased from Sigma-Aldrich (Cat. No. P0077) and used. Ingenol was purchased from Sigma-Aldrich (Cat. No. SML1318) and used. IEC-6 cells and IEC-18 cells were treated with each of prostratin and ingenol at 30 nM, 100 nM, and 300 nM for 30 minutes, cell lysates were collected, and protein expression levels thereof were analyzed by Western blotting. Western blot analysis was performed as follows. Total cell protein lysates were prepared and subjected to Western blot analysis according to standard procedures. Briefly, cells were chilled on ice, washed twice with ice-cold phosphate-buffered saline, and lysed in buffer containing 1 mM. phenylmethylsulfonyl fluoride and lx protease inhibitor (Sigma-Aldrich). Protein concentration was measured with a Bradford assay kit (Bio-Rad, Hercules, CA, USA). Equal amounts of protein from the cell lysates were resolved by sodium dodecyl sulfate polyacrylamide gel electrophoresis and transferred to membranes which were then incubated with anti-PKCα (Cell Signaling Technology, USA), anti-PKCδ (Cell Signaling Technology, USA), anti-PKCζ (Cell Signaling Technology, USA), anti-p-GLUT1 (Abcam, GB), anti-GLUT1 (Abcam, GB) and anti-GLUT2 (Novus Biological, USA) as primary antibodies overnight at 4° C. The blots were washed 3 times with TBST (Tris-buffered saline containing 0.05% Tween 20) and then incubated with horseradish peroxidase (HRP)-conjugated secondary antibodies for 1 hour at 25° C. As the secondary antibodies, donkey anti-rabbit IgG-HRP antibody (1:5000, Santa Cruz) and donkey anti-mouse IgG-HRP antibody (1:5000, Santa Cruz) were used. Immunoreactivity was detected with SuperSignal West Pico Chemiluminescent Substrate (Thermo Fisher Scientific, MA, USA).

[4] = tested on: db/db mice; assay: Intraperitoneal glucose tolerance test (IPGTT) in diabetic model mice on day 17; assay type: in vivo
Method: Each of prostratin (0.5 mg/kg) and ingenol (1 μg/kg) was intraperitoneally injected daily for 40 days into db/db mice (Jackson Laboratory), known as a representative diabetes model due to deficiency of the leptin receptor, and then the body weight of each mouse was measured. On day 17 after drug administration, an intraperitoneal glucose tolerance test (IPGTT) was performed. […] In the group to which 1 μg/kg of ingenol was administered, the glucose improvement effect appeared at 240 minutes after glucose administration.

[5] = tested on: IEC-6 cells; assay: Intracellular glucose (2-DG) uptake, IEC-6 cells; assay type: cell-based; details: 100 nM
Method: (§2) IEC-6 cells and IEC-18 cells were treated with each of prostratin and ingenol (100 nM) for 10 minutes, and then uptake of 2-deoxy-D-glucose (2-DG) in the collected cell lysates was analyzed. By measuring the glucose concentration, changes in glucose uptake (2-DG uptake) by treatment with each of prostratin and ingenol were determined. The amount of glucose was measured after treatment with each of prostratin and ingenol in a low-concentration glucose medium and serum-free DMEM for 24 hours. Glucose levels in the IEC-6 and IEC-18 cells were detected using a Glucose Assay Kit (Cayman Chemical) according to the manufacturer's instructions. Absorbance signals were measured with a Gen5 spectrophotometer (BioTek, Winooski, VT, USA).

[6] = tested on: db/db mice; assay: Electron microscopy of apical membrane of jejunum lumen of diabetic model mice; assay type: in vivo; details: 0.5 mg/kg for 1 month, electron microscope
[7] = tested on: db/db mice; assay: Body weight in diabetic model mice, daily intraperitoneal injection for 40 days; assay type: in vivo
Method: Each of prostratin (0.5 mg/kg) and ingenol (1 μg/kg) was intraperitoneally injected daily for 40 days into db/db mice (Jackson Laboratory), known as a representative diabetes model due to deficiency of the leptin receptor, and then the body weight of each mouse was measured.

[8] = tested on: human pancreatic tumors; details: orally administered; cited from earlier work
[9] = tested on: IEC-18 cells; assay: Western blot of GLUT transporters after treatment, IEC-18 cells; assay type: cell-based; details: for GLUT1 phosphorylation: 30, 100 and 300 nM, 30 minutes, Western blot; for expression of p-GLUT1 and GLUT1: compared to Na/K ATPase
Method: as §1

[10] = tested on: db/db mice; assay: Immunohistochemical staining of PKC zeta in small intestine of diabetic model mice; assay type: in vivo; details: 0.5 mg/kg for 1 month
Method: After administration of prostratin (0.5 mg/kg) or vehicle to db/db mice for 1 month, the small intestine was harvested, and the duodenum, jejunum, and ileum were fixed with formalin, subjected to immunohistochemical staining with anti-PKC zeta antibody (Abcam, USA), and imaged with an optical microscope at 100× and 400× magnifications.

[11] = tested on: IEC-18 cells; assay: Intracellular glucose (2-DG) uptake, IEC-18 cells; assay type: cell-based; details: 100 nM
Method: as §2

[12] = tested on: C57BL6 mice; assay: IP glucose tolerance test after single subcutaneous injection; assay type: in vivo; details: 2 g/kg glucose
Method: After 12 C57BL6 mice were fasted for 12 hours, fasting blood glucose was measured by performing an intraperitoneal glucose test. Thereafter, ingenol (4 μg/kg) and prostratin (1 mg/kg) was injected subcutaneously once into the ingenol-administered group (4 mice) and the prostratin-administered group, respectively, and 2 g of glucose per kg of mouse (2 g/kg glucose) was diluted in physiological saline and intraperitoneally administered to each mouse. Thereafter, an IP glucose tolerance test was performed at 15 minutes, 30 minutes, 60 minutes, 90 minutes, and 120 minutes.

[13] = tested on: C57BL6 mice; assay: IP glucose tolerance test after 2 weeks of administration by osmotic pump; assay type: in vivo; details: 0.5 mg/kg and 1 mg/kg for 2 weeks, 2 g/kg glucose
Method: Prostratin was administered to C57BL6 mice at concentrations of 0 mg/kg, 0.5 mg/kg, and 1 mg/kg for 2 weeks using an osmotic pump, followed by fasting for 12 hours. Then, 2 g of glucose per kg of mouse (2 g/kg glucose) was diluted in physiological saline and intraperitoneally administered to each mouse. Thereafter, an IP glucose tolerance test was performed at 15 minutes, 30 minutes, 60 minutes, 90 minutes, and 120 minutes.

[14] = tested on: IEC-6 cell line; assay: Western blot of p-GLUT1 after PKC siRNA transfection and prostratin treatment; assay type: cell-based; details: prostratin 1 μM
Method: To identify which PKC subtypes induce GLUT1 activation by each of prostratin and ingenol, the IEC-6 cell line was transfected with 50 nM of siRNA for each of conventional PKC (PKCα), novel PKC ([…]), and atypical PKCs (PKCζ and […]) using RNAiMax (Invitrogen). After 48 hours, the cells were treated with prostratin (1 μM), and total protein was extracted and subjected to Western blotting. The siRNA sequences used are as follows.

[15] = tested on: IEC-18 cells; assay: Western blot of PKC and GLUT1 activation over time, IEC-18 cells; assay type: cell-based; details: prostratin 2 μM; for activities of PKC zeta and GLUT1: ingenol 0.1 μM, 0, 15 and 60 minutes
Method: After treatment of IEC-18 cells with each of prostratin (2 μM) and ingenol (0.1 μM) for 0, 15, and 60 minutes, the expression of PKC and GLUT1 proteins was analyzed by Western blotting.

[16] = tested on: db/db mice; assay: 18FDG absorption and excretion in intestines of diabetic model mice; assay type: in vivo; details: 0.5 mg/kg for 1 month
Method: The intestines of db/db mice (Jackson Laboratory) to which 0.5 mg/kg of prostratin had been administered for 1 month were harvested and radiographed for 18FDG (fluorodeoxyglucose, DuChemBio). 18FDG was purchased from DuChemBio and 200 μCi was injected into each mouse via the tail vein. In addition, 18FDG in a fecal sample obtained by washing the harvested small intestine with 5 mL of PBS was measured, and 18FDG uptake of the duodenum, jejunum, and ileum of the small intestine was measured with a gamma counter.

[17] = tested on: IEC-6 cells; assay: Glucose uptake with and without PKC zeta inhibitor ZIP, IEC-6 cells; assay type: cell-based; details: 100 nM
[18] = tested on: IEC-18 cells; assay: Western blot of PKC zeta, p-GLUT1 and GLUT1 with ingenol, IEC-18 cells; assay type: cell-based; details: ingenol 0.1 μM, vs empty vector negative control
Method: (§3) Transfected cell lines were generated by transfection such that PKC zeta was transiently overexpressed in IEC-6 cells, IEC-18 cells, and HEK293 (ATCC CRL-1573) cells. A rat PKC zeta-expressing plasmid (Korea Gene Bank) was subcloned into pCDNA3.1 (Addgene, USA). […] Cells were transfected with the expression plasmid using Polyjet transfection reagent (SignaGen) according to the manufacturer's instructions. Transfected cells were cultured for 48 hours at 37° C. before lysis and treated with ingenol (0.1 μM). Cell lysates were collected for the empty vector-infected cell group as a control group, the PKC zeta-transfected cell group, the wild-type cell group treated with ingenol, and the transfected cell group treated with ingenol, and subjected to Western blotting. In Western blotting, Na/K ATPase was used as a membrane loading control.

[19] = tested on: HEK293; assay: Western blot of PKC zeta, p-GLUT1 and GLUT1 with ingenol, HEK293 cells; assay type: cell-based; details: vs empty vector negative control
Method: as §3

[20] = tested on: IEC-6 cells; assay: Western blot of PKC zeta, p-GLUT1 and GLUT1 with ingenol, IEC-6 cells; assay type: cell-based; details: ingenol 0.1 μM, vs empty vector negative control
Method: as §3

[21] = atypical PKC (PKCζ and PKC↓)-knockdown group

CC(=O)O[C@@]12C[C@@H](C)[C@@]3(O)[C@@H](C=C(CO)C[C@]4(O)C(=O)C(C)=C[C@@H]34)[C@@H]1C2(C)C [prostratin]
2DG uptake [1, 21]: not increased | 2DG uptake ([1]; negative control group (siNeg)): increased | 6-phosphate glucose in the cells [2]: increased | GLUT1 phosphorylation [3]: promoted | expression of p-GLUT1 and GLUT1 [3]: increased | glucose improvement (IPGTT) vs vehicle group ([4]; prostratin 0.5 mg/kg, entire period of 30 to 240 minutes): superior to that in the control group | intracellular glucose (2-DG) uptake [5]: increased | glycocalyx near the microvilli of the jejunum vs vehicle [6]: secreted more | number of mitochondria in the small intestine cells [6]: increased | weight loss compared to vehicle group ([7]; prostratin 0.5 mg/kg i.p. daily, on and after day 11): showed statistical significance | effect on human pancreatic tumors [8]: inhibited | GLUT1 phosphorylation [9]: promoted | expression of p-GLUT1 and GLUT1 [9]: increased | PKC zeta staining in the duodenum vs vehicle [10]: no significant difference | location of PKC zeta in the jejunum and ileum [10]: tended to be concentrated in the apical membrane of the lumen | intracellular glucose (2-DG) uptake [11]: increased | glucose metabolism (IP glucose tolerance test) compared to Vehicle ([12]; prostratin 1 mg/kg subcutaneously once, at 30 and 60 minutes): significantly improved | area values under the glucose change curve for 2 hours [13]: improved | expression of GLUT1 (p-GLUT1) ([14]; negative control group (siNeg)): increased | expression of GLUT1 (p-GLUT1) ([14]; siRNA for atypical PKCs (PKCζ and PKC↓)): did not increase | translocation of PKC and GLUT1 to the cell membrane, prostratin compared with ingenol ([15]; ingenol 0.1 μM): more rapidly translocated | activities of PKC zeta and GLUT1 [15]: increased | glucose absorption in duodenum, jejunum and ileum (18FDG, gamma counter) [16]: more than doubled | glucose absorption in the small intestine (18FDG radiographs) vs vehicle group [16]: significantly higher | glucose excretion in the fecal samples (18FDG) [16]: higher | 6-phosphate glucose in the cells [17]: increased

C/C=C(/C)C(=O)O[C@H]1C(C)=C[C@]23C(=O)[C@@H](C=C(CO)[C@@H](O)[C@]12O)[C@H]1[C@@H](C[C@H]3C)C1(C)C [ingenol-3-angelate]
2DG uptake [1, 21]: not increased | 2DG uptake ([1]; negative control group (siNeg)): increased | 6-phosphate glucose in the cells [2]: increased | GLUT1 phosphorylation [3]: promoted | expression of p-GLUT1 and GLUT1 [3]: increased | GLUT1 translocation [18]: translocated | PKC zeta activation and translocation to the cell membrane [18]: activated and translocated to the cell membrane | glucose improvement effect (IPGTT) ([4]; ingenol 1 μg/kg, at 240 minutes after glucose administration): appeared | intracellular glucose (2-DG) uptake [5]: increased | weight loss ([7]; ingenol 1 μg/kg i.p. daily, increased to 2 μg/kg on day 28, day 30): showed statistical significance | GLUT1 phosphorylation [9]: promoted | expression of p-GLUT1 and GLUT1 [9]: increased | intracellular glucose (2-DG) uptake [11]: increased | GLUT1 translocation [19]: translocated | PKC zeta activation and translocation to the cell membrane [19]: activated and translocated to the cell membrane | glucose metabolism (IP glucose tolerance test) compared to negative control ([12]; ingenol 4 μg/kg subcutaneously once): improved | activities of PKC zeta and GLUT1 [15]: increased | 6-phosphate glucose in the cells [17]: increased | GLUT1 translocation [20]: translocated | PKC zeta activation and translocation to the cell membrane [20]: activated and translocated to the cell membrane
